Tests used:
[1] = test system: surface of aggregation of cells; test: Dynamic reflective laser speckled imaging of cell surface vibrations; assay type: cell-based; conditions: before and after mibefradil treatment, 0-5 Hz range
Description: The inventors have used the above-described imaging system 120 (the experimental set up was built by modifying an inverted fluorescence microscope set up) to acquire the sequence of tissue's images-one such image is shown in FIG. 19A. The image data analysis described above were then used to determine cell vibrations at the surface of aggregation of cells before and after the augmentation of cell membrane vibrations using mibefradil. […] FIGS. 19C and 19D show power fit parameters for the ASD analysis results in the cells (shown in FIG. 19B) before and after mibefradil treatment: parameter b (FIG. 19C) and sum of amplitudes in the 0-5 Hz range (FIG. 19D). Multiple areas of cells (N=14) were measured and compared each before and after mibefradil treatment.

[2] = test system: primary lymphocytes (benign), CD8 (malignant) and Jurkat (malignant) cells; test: TIRF microscopy of cell membrane fluctuations in a model of the immune synapse; assay type: cell-based, human; conditions: frequency ranges 0-5 Hz and 10-25 Hz, before and after Mibefradil treatment
Description: So far, intracellular fluctuations as captured by the motion of intracellular particles or by the cell boundaries were described. The fluctuations of the cell membrane may have an impact on the formation and function of the immune synapse that forms between T cells and antigen presenting cells (APCs). To study such a possible impact, the inventors measured fluctuations of Jurkat cells at their interface with coverslips coated with αCD3ε antibodies. Such coverslips often serve as a model for the immune synapse, as the cells spread on the coverslips and get robustly activated. The membrane of the cells was stained with an αCD45 primary antibody, labeled with Alexa647 and imaged by time-lapse TIRF microscopy. […] The reflection light was detected using an avalanche photodiode (APD) with a band-pass filter of 650-720 nm. […] Fluorescence intensity of each pixel in each image was normalized by dividing its intensity with the average intensity of that time-dependent image. The temporal fluctuations of the normalized fluorescence intensities were analyzed by DFT for each pixel in a ROI. […] Live cells were measured without and after ATP depletion, while fixed cells served for control. […] The temporal fluctuations of the normalized fluorescence intensities were analyzed via DFT for each pixel in that ROI. […]

live Jurkat cells = test: DIC microscopy of intracellular particles motion (ASD/PSD and MSD analysis); assay type: cell-based, human; conditions: 10 μM blebbistatin treatment, compared with ATP depletion
Description: In the following experimental results of the spectral analysis of position fluctuations in time of intracellular particles in Jurkat T lymphocytes, each cell before and after ATP depletion, are presented. […] Depletion of cellular ATP was induced by 30 min incubation with 0.2 μM of the mitochondrial complex 1 inhibitor Rotenone (Sigma-Aldrich, St. Louis, MO, United States) together with 10 mM glycolysis inhibitor 2-deoxy-D-glucose (Sigma-Aldrich, St. Louis, MO, United States). For the visualization and monitoring of intracellular objects, including vesicles, Differential Interference Contrast (DIC) microscopy was employed. Reference is made to FIG. 6a where DIC image of a representative live Jurkat cell is shown. […]
After thresholding the objects, the x and y positions of each identified particle at each point of time (determined by the MultiTracker plug in) were recorded (FIGS. 6c-6e). […] Then, the DFT of these time dependent position changes were calculated for each spatial dimension. The average DFT amplitudes of all moving particles in each cell under each condition were determined for the x and y spatial dimensions. […]
From the position results of the detected intracellular particles, the MSD values for time-lags from 0.3 to 3 s (with a 0.3 s gradual increase) were calculated. The average MSD values were determined for that series of time-lags for each cell before and after ATP depletion. […]

| SMILES | mechanical vibrations of the cells' membrane [1] | cell membrane vibrations (average DFT amplitudes) [2] | effects on intracellular motion (live Jurkat cells) |
| --- | --- | --- | --- |
| COCC(=O)O[C@]1(CCN(C)CCCc2nc3ccccc3[nH]2)CCc2cc(F)ccc2[C@@H]1C(C)C [Mibefradil] | an increase in mechanical vibrations of the cells' membrane | increases cell membrane vibrations in all cell types | – |
| Cc1ccc2c(c1)C(=O)C1(O)CCN(c3ccccc3)C1=N2 (stereo not drawn) [blebbistatin] | – | – | effects on intracellular motion of blebbistatin treatment and ATP depletion were similar |

— US20260253225A1, “OPTICAL SYSTEM AND METHOD FOR MONITORING ABNORMALITY ASSOCIATED PARAMETERS IN CELL-CONTAINING SAMPLES” (priority 2023, published 2026)
